Results reported in ChEMBL document CHEMBL4507268 (2021).

Columns and labels:
Settings in all cases: Compound concentration 1000.0 nM
[1] = tested on: Receptor-type tyrosine-protein kinase FLT3 (Homo sapiens), P36888 [D835H]
[2] = target: Cyclin-dependent kinase 4 (Homo sapiens) (UniProt P11802)
[3] = tested on: Hepatocyte growth factor receptor (Homo sapiens), P08581 [Y1235D]
[4] = target: T1, Serine/threonine-protein kinase Nek11 (Homo sapiens) (UniProt Q8NG66)
T1 sequence (whole entry): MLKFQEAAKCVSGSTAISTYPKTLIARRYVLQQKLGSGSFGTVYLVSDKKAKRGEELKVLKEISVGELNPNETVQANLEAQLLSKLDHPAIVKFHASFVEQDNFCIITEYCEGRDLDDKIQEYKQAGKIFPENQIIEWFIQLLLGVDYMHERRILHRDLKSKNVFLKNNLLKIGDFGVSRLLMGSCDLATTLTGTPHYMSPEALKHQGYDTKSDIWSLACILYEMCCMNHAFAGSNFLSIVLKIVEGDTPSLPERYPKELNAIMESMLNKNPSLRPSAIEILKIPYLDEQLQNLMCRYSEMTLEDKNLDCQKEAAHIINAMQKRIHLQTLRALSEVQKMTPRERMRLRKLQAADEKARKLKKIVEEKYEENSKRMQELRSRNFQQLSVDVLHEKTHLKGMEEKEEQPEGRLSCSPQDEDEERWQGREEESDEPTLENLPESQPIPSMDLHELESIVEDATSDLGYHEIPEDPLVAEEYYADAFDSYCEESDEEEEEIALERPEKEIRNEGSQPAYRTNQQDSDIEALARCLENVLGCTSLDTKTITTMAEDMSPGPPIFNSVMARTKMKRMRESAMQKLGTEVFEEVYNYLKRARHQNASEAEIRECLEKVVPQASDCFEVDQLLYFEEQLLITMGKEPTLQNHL

[5] = target: Mast/stem cell growth factor receptor Kit (Homo sapiens) (UniProt P10721)
[6] = target: Receptor tyrosine-protein kinase erbB-2 (Homo sapiens) (UniProt P04626)
Receptor tyrosine-protein kinase erbB-2 (Homo sapiens), sequence (P04626 whole entry): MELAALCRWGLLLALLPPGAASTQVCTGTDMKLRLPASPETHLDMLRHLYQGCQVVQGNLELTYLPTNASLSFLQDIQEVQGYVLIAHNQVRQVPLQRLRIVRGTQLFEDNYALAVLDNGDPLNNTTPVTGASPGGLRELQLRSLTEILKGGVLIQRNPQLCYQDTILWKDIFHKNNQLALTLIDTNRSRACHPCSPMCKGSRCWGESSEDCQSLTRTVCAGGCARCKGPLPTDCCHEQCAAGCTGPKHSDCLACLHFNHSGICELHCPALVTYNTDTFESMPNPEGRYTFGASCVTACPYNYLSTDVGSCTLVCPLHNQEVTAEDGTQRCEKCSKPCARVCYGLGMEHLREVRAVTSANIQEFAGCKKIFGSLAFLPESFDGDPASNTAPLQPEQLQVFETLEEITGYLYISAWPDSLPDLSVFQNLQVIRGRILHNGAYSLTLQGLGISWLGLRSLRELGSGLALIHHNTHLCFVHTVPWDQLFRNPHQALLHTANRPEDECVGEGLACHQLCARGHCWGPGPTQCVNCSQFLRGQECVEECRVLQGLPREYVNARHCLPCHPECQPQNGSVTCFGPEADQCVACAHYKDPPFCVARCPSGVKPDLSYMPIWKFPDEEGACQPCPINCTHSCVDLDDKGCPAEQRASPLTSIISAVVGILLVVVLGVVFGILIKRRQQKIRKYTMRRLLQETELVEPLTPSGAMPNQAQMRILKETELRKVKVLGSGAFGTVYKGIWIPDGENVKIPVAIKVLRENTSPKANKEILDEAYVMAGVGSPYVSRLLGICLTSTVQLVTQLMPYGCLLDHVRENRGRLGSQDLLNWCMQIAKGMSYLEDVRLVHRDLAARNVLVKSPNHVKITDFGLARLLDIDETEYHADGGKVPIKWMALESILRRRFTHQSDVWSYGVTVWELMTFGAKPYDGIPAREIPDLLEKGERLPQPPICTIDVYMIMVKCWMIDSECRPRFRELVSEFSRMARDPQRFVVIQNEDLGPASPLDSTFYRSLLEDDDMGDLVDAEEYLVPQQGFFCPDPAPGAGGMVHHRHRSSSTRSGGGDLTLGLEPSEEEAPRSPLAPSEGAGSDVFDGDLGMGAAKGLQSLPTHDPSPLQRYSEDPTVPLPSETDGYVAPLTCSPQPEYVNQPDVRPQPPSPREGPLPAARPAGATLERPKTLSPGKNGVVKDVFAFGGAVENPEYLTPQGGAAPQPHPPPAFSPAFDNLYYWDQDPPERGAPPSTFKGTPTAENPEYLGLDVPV

[7] = target: MAP kinase-interacting serine/threonine-protein kinase 2 (Homo sapiens) (UniProt Q9HBH9)
[8] = tested on: ALK tyrosine kinase receptor (Homo sapiens), Q9UM73 [C1156Y]
[9] = target: Phosphatidylinositol 3-kinase catalytic subunit type 3 (Homo sapiens) (UniProt Q8NEB9)
Phosphatidylinositol 3-kinase catalytic subunit type 3 (Homo sapiens), sequence (Q8NEB9 whole entry): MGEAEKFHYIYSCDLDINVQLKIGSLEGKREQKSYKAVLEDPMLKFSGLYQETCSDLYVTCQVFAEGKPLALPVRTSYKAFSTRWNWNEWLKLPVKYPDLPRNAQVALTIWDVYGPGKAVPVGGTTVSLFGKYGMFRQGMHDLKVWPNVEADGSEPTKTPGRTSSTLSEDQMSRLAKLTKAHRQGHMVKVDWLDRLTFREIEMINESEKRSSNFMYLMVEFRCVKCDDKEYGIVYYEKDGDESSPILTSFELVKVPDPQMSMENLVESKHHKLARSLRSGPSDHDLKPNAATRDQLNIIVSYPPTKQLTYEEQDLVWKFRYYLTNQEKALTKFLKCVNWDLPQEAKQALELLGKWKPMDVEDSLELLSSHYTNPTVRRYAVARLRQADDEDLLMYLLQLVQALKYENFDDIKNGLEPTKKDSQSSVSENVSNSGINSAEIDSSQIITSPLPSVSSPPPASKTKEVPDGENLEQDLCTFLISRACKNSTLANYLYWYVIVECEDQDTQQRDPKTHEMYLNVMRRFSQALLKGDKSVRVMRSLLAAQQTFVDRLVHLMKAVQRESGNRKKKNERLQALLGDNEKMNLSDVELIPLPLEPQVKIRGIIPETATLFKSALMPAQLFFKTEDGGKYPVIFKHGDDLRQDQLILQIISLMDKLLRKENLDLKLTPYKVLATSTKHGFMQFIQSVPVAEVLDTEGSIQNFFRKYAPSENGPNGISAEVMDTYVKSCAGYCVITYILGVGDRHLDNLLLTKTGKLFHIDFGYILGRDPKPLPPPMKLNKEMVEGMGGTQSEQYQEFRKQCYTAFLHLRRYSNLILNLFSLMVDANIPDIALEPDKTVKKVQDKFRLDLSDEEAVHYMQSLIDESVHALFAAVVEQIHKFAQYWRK

[10] = target: Mitogen-activated protein kinase kinase kinase 9 (Homo sapiens) (UniProt P80192)
Mitogen-activated protein kinase kinase kinase 9 (Homo sapiens), sequence (P80192 whole entry, looked up, canonical isoform): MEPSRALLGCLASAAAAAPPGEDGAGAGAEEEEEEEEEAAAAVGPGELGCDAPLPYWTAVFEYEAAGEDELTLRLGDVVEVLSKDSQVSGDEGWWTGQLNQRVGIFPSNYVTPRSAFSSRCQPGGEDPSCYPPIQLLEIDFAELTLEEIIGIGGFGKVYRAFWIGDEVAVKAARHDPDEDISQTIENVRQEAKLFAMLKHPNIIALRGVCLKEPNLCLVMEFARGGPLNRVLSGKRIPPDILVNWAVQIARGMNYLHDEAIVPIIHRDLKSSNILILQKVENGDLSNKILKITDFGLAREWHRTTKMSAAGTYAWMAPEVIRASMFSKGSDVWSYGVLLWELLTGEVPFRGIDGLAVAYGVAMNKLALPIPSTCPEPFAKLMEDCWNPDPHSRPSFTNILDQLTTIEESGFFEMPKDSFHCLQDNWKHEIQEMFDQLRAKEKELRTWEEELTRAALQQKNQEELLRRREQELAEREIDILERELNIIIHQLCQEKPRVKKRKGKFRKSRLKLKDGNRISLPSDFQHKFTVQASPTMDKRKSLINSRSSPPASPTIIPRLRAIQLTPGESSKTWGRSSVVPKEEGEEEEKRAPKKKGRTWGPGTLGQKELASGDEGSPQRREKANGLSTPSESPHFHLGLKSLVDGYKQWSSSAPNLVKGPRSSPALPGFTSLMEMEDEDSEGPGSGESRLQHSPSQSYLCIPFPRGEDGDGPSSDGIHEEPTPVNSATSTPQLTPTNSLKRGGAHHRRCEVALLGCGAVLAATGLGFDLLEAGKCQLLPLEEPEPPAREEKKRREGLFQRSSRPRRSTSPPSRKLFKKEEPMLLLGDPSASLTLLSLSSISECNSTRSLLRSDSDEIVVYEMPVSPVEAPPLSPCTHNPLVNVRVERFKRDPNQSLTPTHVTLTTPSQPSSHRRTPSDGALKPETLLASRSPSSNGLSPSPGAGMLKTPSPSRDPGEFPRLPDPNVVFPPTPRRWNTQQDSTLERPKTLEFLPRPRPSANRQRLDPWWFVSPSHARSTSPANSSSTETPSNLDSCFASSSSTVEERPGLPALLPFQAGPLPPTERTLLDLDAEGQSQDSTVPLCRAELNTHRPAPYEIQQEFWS

[11] = tested on: Phosphatidylinositol 4,5-bisphosphate 3-kinase catalytic subunit alpha isoform (Homo sapiens), P42336 [H1047Y]
[12] = tested on: Receptor-type tyrosine-protein kinase FLT3 (Homo sapiens), P36888 [D835V]
[13] = target: Ribosomal protein S6 kinase alpha-5 (Homo sapiens) (UniProt O75582)
Ribosomal protein S6 kinase alpha-5 (Homo sapiens), sequence (O75582 whole entry, looked up): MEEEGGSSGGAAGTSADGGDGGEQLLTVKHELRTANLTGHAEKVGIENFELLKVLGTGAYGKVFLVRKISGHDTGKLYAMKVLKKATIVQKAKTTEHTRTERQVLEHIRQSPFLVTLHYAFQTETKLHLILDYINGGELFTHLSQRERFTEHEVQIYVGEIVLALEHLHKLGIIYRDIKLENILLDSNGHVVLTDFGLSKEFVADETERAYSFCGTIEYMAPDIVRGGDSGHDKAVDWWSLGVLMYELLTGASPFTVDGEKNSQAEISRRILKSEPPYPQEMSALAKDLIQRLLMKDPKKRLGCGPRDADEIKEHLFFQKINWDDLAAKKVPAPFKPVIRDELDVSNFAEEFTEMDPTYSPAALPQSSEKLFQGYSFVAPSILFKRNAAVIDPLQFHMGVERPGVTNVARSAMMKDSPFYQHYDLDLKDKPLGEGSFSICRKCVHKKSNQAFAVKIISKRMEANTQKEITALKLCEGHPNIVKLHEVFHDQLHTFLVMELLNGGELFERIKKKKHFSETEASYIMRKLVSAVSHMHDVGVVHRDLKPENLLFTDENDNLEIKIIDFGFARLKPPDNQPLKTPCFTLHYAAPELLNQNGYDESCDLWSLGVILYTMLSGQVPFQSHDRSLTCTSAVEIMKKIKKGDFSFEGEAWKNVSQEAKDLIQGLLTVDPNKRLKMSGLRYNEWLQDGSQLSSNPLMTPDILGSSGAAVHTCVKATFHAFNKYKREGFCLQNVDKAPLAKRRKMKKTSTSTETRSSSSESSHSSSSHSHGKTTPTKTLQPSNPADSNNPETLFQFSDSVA

[14] = target: Serine/threonine-protein kinase TNNI3K (Homo sapiens) (UniProt Q59H18)
[15] = target: Cyclin-dependent kinase 5 (Homo sapiens) (UniProt Q00535)
Cyclin-dependent kinase 5 (Homo sapiens), sequence (Q00535 whole entry, looked up): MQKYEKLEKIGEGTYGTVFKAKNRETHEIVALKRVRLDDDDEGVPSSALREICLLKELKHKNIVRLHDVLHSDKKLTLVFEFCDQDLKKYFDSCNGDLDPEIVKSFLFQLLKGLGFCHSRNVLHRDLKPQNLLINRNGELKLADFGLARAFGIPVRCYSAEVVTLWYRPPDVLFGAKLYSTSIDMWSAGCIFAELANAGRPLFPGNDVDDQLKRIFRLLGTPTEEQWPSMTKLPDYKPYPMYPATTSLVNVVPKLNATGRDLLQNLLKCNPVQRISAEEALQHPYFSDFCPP

[16] = target: T2, Dual specificity mitogen-activated protein kinase kinase 7 (Homo sapiens) (UniProt O14733)
T2 sequence (whole entry): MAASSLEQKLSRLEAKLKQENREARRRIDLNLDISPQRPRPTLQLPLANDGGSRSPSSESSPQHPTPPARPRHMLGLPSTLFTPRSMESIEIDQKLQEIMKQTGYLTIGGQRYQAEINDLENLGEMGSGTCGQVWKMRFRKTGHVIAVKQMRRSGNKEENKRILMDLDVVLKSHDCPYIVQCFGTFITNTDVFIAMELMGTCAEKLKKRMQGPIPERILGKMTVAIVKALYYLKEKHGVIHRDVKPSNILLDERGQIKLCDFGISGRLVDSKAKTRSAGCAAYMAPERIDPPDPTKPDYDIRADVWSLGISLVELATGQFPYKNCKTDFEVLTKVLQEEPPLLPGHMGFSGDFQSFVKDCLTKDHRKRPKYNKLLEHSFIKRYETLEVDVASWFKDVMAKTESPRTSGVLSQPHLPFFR

[17] = target: Death-associated protein kinase 1 (Homo sapiens) (UniProt P53355)
[18] = target: Serine/threonine-protein kinase 35 (Homo sapiens) (UniProt Q8TDR2)
[19] = target: Mitogen-activated protein kinase kinase kinase kinase 2 (Homo sapiens) (UniProt Q12851)
[20] = target: Serine/threonine-protein kinase 16 (Homo sapiens) (UniProt O75716)
Serine/threonine-protein kinase 16 (Homo sapiens), sequence (O75716 whole entry): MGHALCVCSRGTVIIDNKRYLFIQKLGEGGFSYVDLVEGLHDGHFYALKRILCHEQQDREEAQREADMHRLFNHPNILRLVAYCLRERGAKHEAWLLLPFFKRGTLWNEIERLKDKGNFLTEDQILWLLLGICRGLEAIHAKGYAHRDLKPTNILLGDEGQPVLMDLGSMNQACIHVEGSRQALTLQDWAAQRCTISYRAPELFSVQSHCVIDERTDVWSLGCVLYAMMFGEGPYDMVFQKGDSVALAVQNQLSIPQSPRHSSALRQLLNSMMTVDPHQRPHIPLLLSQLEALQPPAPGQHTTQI

[21] = target: Mitogen-activated protein kinase kinase kinase 19 (Homo sapiens) (UniProt Q56UN5)

Measured: residual activity

Cyclin-dependent kinase 4 (Homo sapiens), sequence (P11802 whole entry): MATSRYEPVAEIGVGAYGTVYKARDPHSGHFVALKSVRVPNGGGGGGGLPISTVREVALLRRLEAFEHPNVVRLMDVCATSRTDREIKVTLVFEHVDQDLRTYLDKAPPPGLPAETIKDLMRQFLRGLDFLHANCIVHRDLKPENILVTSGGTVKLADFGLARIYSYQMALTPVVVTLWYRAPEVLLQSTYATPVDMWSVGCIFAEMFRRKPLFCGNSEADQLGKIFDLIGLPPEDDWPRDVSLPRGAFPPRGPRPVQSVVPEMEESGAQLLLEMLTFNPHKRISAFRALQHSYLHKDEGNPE

CN1CCN(c2cnc3c(C4CCN(C(=O)c5ccc(OC(F)(F)F)cc5N)CC4)ncnc3c2)CC1 [BAY-885]
inactive: [1] 75% | [2] 98% | [3] 73% | [4] 100% | [5] 85% | [6] 100% | [7] 100% | [8] 100% | [9] 100% | [10] 100% | [11] 92% | [12] 90% | [13] 96% | [14] 100% | [15] 87% | [16] 100% | [17] 100% | [18] 100% | [19] 82% | [20] 100% | [21] 83%

Cc1nc(C2CCN(C(=O)c3ccc(OC(F)(F)F)cc3N)CC2)c2ncc(N3CCN(C)CC3)cc2n1 [BAY-693]
inactive: [1] 69% | [2] 99% | [3] 98% | [4] 100% | [5] 76% | [6] 100% | [7] 100% | [8] 100% | [9] 95% | [10] 97% | [11] 69% | [12] 79% | [13] 90% | [14] 100% | [15] 88% | [16] 86% | [17] 95% | [18] 100% | [19] 80% | [20] 100% | [21] 79%
